In patent US10827758B2, “Relating to water treatment” (BWA WATER ADDITIVES UK LIMITED, priority 2014, dated 2020):

Tests used:
Desulfovibrio vulgaris = experiment: Log 10 Reduction of anaerobic bacterium in dosed bacterial suspension (serial dilution into API RP 38 media vials); type: cell-based; settings: TDS 30,000 mg l^-1, ppm dose per Example, 6 = complete kill
Description: (§1) A suspension of Desulfovibrio vulgaris plus Enterobacter aerogenes bacteria containing from 1×10^6 to 1×10^8 cells/mL was prepared in sterile pH 8 phosphate buffer containing varying levels of sodium chloride to give the desired total dissolved solids (TDS) concentration. Aliquots of this suspension were dosed with the indicated concentrations of the phosphonium compound (a) and stabilised halogen containing composition (b) with the concentrations being measured as ppm by weight of the stated composition in the dosed suspension. The mixtures were allowed to stand at room temperature. At the designated contact times, each mixture was sampled to determine the total number of viable cells of both Desulfovibrio vulgaris and Enterobacter aerogenes by serial 10-fold dilution into API RP 38 media vials and anaerobic acid producing media vials, respectively. The vials were incubated at 37° C. for 72 hours. Results were recorded as cells per millilitre.
(§2) Aqueous media inoculated with anaerobe and aerobe culture and having a TDS of 30,000 mg l^−1 was treated with treatment agents comprising: (i) stabilised halogen containing composition; (ii) tri n-butyl n-tetradecyl phosphonium chloride (TTPC) or (iii) a combination of stabilised halogen containing composition and TTPC.
(§3) The efficacy of the treatment agents was evaluated by measuring the Log 10 Reduction of the anaerobic bacterium Desulfovibrio vulgaris and the facultative anaerobeic bacterium Enterobacter aerogenes after contact times of 1 hour, 4 hours and 24 hours as detailed in Table 1. For TTPC the stated ppm value relates to the amount of TTPC added (active). For the stabilised bromine composition the stated ppm relates to the amount of Bromax 7.1 added (product)
(§4) A Log 10 reduction of 6 represents a complete kill for anaerobes and a Log 10 reduction of 8 represents a complete kill for facultative anaerobes.

Enterobacter aerogenes = experiment: Log 10 Reduction of facultative anaerobic bacterium in dosed bacterial suspension (serial dilution into anaerobic acid producing media vials); type: cell-based; settings: TDS 30,000 mg l^-1, ppm dose per Example, 8 = complete kill
Description: as §1, §2, §3, §4

Row | SMILES | Log10 Reduction Anaerobes (Desulfovibrio vulgaris; contact time 1 hour) | Log10 Reduction Facultative Anaerobes (Enterobacter aerogenes; contact time 1 hour) | Log10 Reduction Anaerobes (Desulfovibrio vulgaris; contact time 24 hours) | Log10 Reduction Facultative Anaerobes (Enterobacter aerogenes; contact time 24 hours) | further results
1 | CCCCCCCCCCCCCC[P+](CCCC)(CCCC)CCCC.[Cl-] [Example 9, tri n-butyl n-tetradecyl phosphonium chloride] | – | – | – | – | Log10 Reduction Anaerobes (Desulfovibrio vulgaris; contact time 4 hours): 6; Log10 Reduction Facultative Anaerobes (Enterobacter aerogenes; contact time 4 hours): 5
2 | CCCCCCCCCCCCCC[P+](CCCC)(CCCC)CCCC.[Cl-] [Example 2, tri n-butyl n-tetradecyl phosphonium chloride] | 6 | 4 | – | – | –
3 | CCCCCCCCCCCCCC[P+](CCCC)(CCCC)CCCC.[Cl-] [Example 17, tri n-butyl n-tetradecyl phosphonium chloride] | – | – | 6 | 5 | –
4 | CCCCCCCCCCCCCC[P+](CCCC)(CCCC)CCCC.[Cl-] [Example 18, tri n-butyl n-tetradecyl phosphonium chloride] | – | – | 6 | 8 | –
5 | CCCCCCCCCCCCCC[P+](CCCC)(CCCC)CCCC.[Cl-] [Example 1, tri n-butyl n-tetradecyl phosphonium chloride] | 3 | 1 | – | – | –
